Results published in article PMC12169455, “Discovery of Indole-Based PDE5 Inhibitors: Synthesis and Pharmacological Evaluation” (ACS Medicinal Chemistry Letters, 2025).
Read-outs that look alike come from different tables or passages of the source.

Key:
Recombinant human PDE5 = Recombinant human PDE5 (Homo sapiens, UniProt O76074); assay: PDE5 enzymatic assay coupled with LC/MS analysis for cGMP determination; assay type: biochemical
[1] = PAMPA using porcine brain lipids (BBB permeability); settings: pig
[2] = system: MCF-7 mammary epithelial adenocarcinoma cells; assay: MTT cytotoxicity assay; assay type: cell-based; settings: MCF-7, MTT
Protocol: The cytotoxicity effect of compound 14a was investigated to validate its suitability as a lead compound for further drug development. The cancer cell line MCF-7 was used in an MTT assay assessing cell metabolic activity (see Supporting Information for materials and methods).
5 Cytotoxicity assay of compound 14a. The compound (0.1–100 μM) was dissolved in 20% DMSO in saline; ns = nonsignificant. […]
µM concentrations. […] The cells
MultiScreen® filter plate (cat. no. MAIPNTR10, Millipore). Sample solutions (300 µL, 50 µM, […]
at room temperature for 18 hours. Samples from the acceptor wells were collected and analyzed by HPLC (Nexera-i LC-2040C Plus, Shimadzu). Equilibrium solutions of compounds 5e, 14a, […]
HPLC. The assay was performed in triplicate. […]
used for the HPLC analysis. […]
apparent permeability (Papp) using the following equation:
P = C × ― ln 1 ― AUCa cm/s […]
this protocol, the donor volume (Vd) is 0.3 cm3, acceptor volume (Va) is 0.15 cm3, membrane

[3] = compound concentration range 0.1 nM – 100 μM, substrate concentration 150 nM, read-out: PDE5 IC50 ± SEM
[4] = compound tested at 10 μM, average of at least three independent experiments, read-out: % PDE5 Inhibition ± SEM
[5] = Papp (RSD), tested at 50 μM, 18 hours, n.d. = not detected
[6] = Papp relative to the BBB-permeable cutoff, higher than cutoff = BBB-permeable
[7] = read-out: % PDE5 Inhibition ± SEM
[8] = PDE5 IC50 ± SEM, compound concentration range 0.1 nM – 100 μM, substrate concentration 150 nM

IC50 (Recombinant human PDE5; [3]) | inhibition at 10 µM (Recombinant human PDE5; [4]) | Compound | also measured
1250 ± 150 nM | 72.2 ± 1.25% | COc1ccc(CNCc2cn(C)c3ccc(C#N)cc23)cc1Cl [Compound 5h] | –
– | 26.2 ± 3.85% | COc1ccc(NCc2cn(CCN(C)C)c3ccc(C#N)cc23)cc1Cl [Compound 5e] | Papp at 18 h, 50 µM [1, 5]: 5.62 ×10⁻⁶ cm/s; Papp at 18 h, 50 µM [1, 6]: > 2 ×10⁻⁶ cm/s
2650 ± 480 nM | 77 ± 4.87% | COc1ccc(NCc2cn(C)c3ccc(C#N)cc23)cc1Cl [Compound 5a] | –
1720 ± 720 nM | 99.2 ± 2.72% | COc1ccc(NCc2cn(CC(C)C)c3ccc(C#N)cc23)cc1Cl [Compound 5d] | –
1370 ± 300 nM | 86.3 ± 1.97% | COc1ccc(NCc2cn(CC3CC3)c3ccc(C#N)cc23)cc1Cl [Compound 5c] | –
– | – | CCCc1nn(C)c2c(=O)[nH]c(-c3cc(S(=O)(=O)N4CCN(C)CC4)ccc3OCC)nc12 [Sildenafil, sildenafil, reference compound] | inhibition at 0.01 µM (Recombinant human PDE5; [7]): 58.2 ± 2.33%
– | – | COc1ccc(CNC(=O)c2cn(CCN(C)C)c3ccccc23)cc1Cl [Compound 14c] | IC50 (Recombinant human PDE5; [8]): 3650 ± 970 nM; PDE5 inhibition effect compared to compound 5e (Recombinant human PDE5; at 10 μM): about double; inhibition at 10 µM (Recombinant human PDE5; [7]): 66.1 ± 2.34%
– | 73.4 ± 7.5% | COc1ccc(Nc2cn(S(=O)(=O)c3ccc(C)cc3)c3ccc(C#N)cc23)cc1Cl [Compound 10] | –
– | – | COc1ccc(CNC(=O)c2cn(CCN(C)C)c3ccc(C#N)cc23)cc1Cl [Compound 14a] | Papp at 18 h, 50 µM [1, 5]: 2.83 ×10⁻⁶ cm/s; Papp at 18 h, 50 µM [1, 6]: > 2 ×10⁻⁶ cm/s; IC50 (Recombinant human PDE5; PDE5 IC50, value quoted in abstract and conclusion): 16.1 nM; IC50 (Recombinant human PDE5; [8]): 16.1 ± 7 nM; increase in biological activity (PDE5) on replacing amine with amide (Recombinant human PDE5; compared with amine analogues): 2 log unit; inhibition at 0.5 µM (Recombinant human PDE5; [7]): 101 ± 4.99%; biologically safe up to (cytotoxicity assay) [2]: up to 100 μM; concentration showing a cytotoxic effect ([2]; after 72 h incubation, safe at all other concentrations tested (0.1–100 μM)): 100 µM
1770 ± 390 nM | 73.4 ± 4.13% | Cn1cc(CNCc2ccc(Cl)c(C(F)(F)F)c2)c2cc(C#N)ccc21 [Compound 5k] | –
– | – | COc1ccc(CN(C)C(=O)c2cn(CCN(C)C)c3ccc(C#N)cc23)cc1Cl.Cl [Compound 14d] | IC50 (Recombinant human PDE5; [8]): 4900 ± 680 nM; reduction of the enzymatic activity (PDE5) compared to 14a (Recombinant human PDE5; amide hydrogen replaced by methyl): 2 log unit; inhibition at 10 µM (Recombinant human PDE5; [7]): 52 ± 6.68%
2460 ± 130 nM | 94.8 ± 2.58% | CCCn1cc(CNc2ccc(OC)c(Cl)c2)c2cc(C#N)ccc21 [Compound 5b] | –
– | 54.5 ± 4.21% | COc1ccc(NCc2cn(Cc3ccncc3)c3ccc(C#N)cc23)cc1Cl [Compound 5g] | –
10400 ± 150 nM | 74.5 ± 1.95% | COCCn1cc(CNc2ccc(OC)c(Cl)c2)c2cc(C#N)ccc21 [Compound 5f] | –
– | 23.6 ± 2.24% | Cn1cc(CNCc2ccc3c(c2)OCO3)c2cc(C#N)ccc21 [Compound 5i] | –
– | – | COc1ccc(NC(=O)c2cn(CCN(C)C)c3ccc(C#N)cc23)cc1Cl [Compound 14b] | IC50 (Recombinant human PDE5; [8]): 10600 ± 1990 nM; inhibition at 10 µM (Recombinant human PDE5; [7]): 47.5 ± 2.33%

Compound | IC50 (Recombinant human PDE5; [3]) | inhibition at 10 µM (Recombinant human PDE5; [4]) | also measured
Cn1cc(CNCCN2CCOCC2)c2cc(C#N)ccc21 [Compound 5j] | – | 10.5 ± 1.69% | –
